# Results: BindingDB's records for doi:10.1016/j.bmc.2007.06.041 (Seoul National University, 2007)
# Target: Transient receptor potential cation channel subfamily V member 1 (Rattus norvegicus, UniProt O35433)
# Experiment: Competition Binding Assay and Inhibition of Ca2+ Uptake Assay
# Conditions: pH 7.4; 37 °C
# Protocol: Binding assay mixtures were set up and contained [3H] RTX, various concentrations of competing ligands, and rVR1-transfected CHO cells. Nonspecific binding was determined in the presence of 100 nM nonradioactive RTX. After the binding reaction, membrane-bound RTX was separated from the free by centrifugation, and the radioactivity was determined by scintillation counting. Equilibrium binding parameters (Ki, Bmax, and cooperativity) were determined by fitting the Hill equation to the measured values with the aid of the program Origin 6.0.
# Transient receptor potential cation channel subfamily V member 1, sequence (O35433 whole entry): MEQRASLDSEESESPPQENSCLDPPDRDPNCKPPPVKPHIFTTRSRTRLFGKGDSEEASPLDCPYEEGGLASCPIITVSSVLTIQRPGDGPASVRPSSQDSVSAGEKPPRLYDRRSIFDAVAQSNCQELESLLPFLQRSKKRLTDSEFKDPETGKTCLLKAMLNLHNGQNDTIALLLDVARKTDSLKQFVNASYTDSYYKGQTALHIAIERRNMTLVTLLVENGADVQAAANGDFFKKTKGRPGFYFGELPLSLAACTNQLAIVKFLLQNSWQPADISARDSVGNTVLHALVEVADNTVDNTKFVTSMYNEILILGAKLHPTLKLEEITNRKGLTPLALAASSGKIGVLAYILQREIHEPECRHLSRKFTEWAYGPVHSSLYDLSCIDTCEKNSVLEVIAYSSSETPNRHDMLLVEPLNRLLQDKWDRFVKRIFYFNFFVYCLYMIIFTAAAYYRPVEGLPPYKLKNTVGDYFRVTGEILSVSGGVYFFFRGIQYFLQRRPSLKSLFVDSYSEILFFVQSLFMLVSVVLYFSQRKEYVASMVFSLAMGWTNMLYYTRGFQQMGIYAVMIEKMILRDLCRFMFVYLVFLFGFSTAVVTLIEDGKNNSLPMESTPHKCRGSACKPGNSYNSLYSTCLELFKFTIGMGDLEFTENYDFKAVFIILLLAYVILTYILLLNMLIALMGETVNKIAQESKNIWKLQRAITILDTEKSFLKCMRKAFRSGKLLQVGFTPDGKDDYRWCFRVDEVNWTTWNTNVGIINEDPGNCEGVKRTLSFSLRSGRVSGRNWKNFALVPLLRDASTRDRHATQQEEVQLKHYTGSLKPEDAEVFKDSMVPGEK
row,Compound,Ki
1,COc1cc(C2(NC(=S)NCc3ccc(C(C)(C)C)cc3)CC2)ccc1NS(C)(=O)=O [1-[(4-tert-butylphenyl)methyl]-3-[1-(4-methanesulfonamido-3-methoxyphenyl)cyclopropyl]thiourea],243 nM
2,CC(C)(C)c1ccc(CNC(=S)NC2(c3ccc(NS(C)(=O)=O)cc3)CC2)cc1 [1-[(4-tert-butylphenyl)methyl]-3-[1-(4-methanesulfonamidophenyl)cyclopropyl]thiourea],60 nM
3,CC(C)C(NC(=S)NCc1ccc(C(C)(C)C)cc1)c1ccc(NS(C)(=O)=O)c(F)c1 (configuration not stated) [3-[(4-tert-butylphenyl)methyl]-1-[1-(3-fluoro-4-methanesulfonamidophenyl)-2-methylpropyl]thiourea],223 nM
4,CC(C)(C)c1ccc(CNC(=S)NC(Cc2ccccc2)c2ccc(NS(C)(=O)=O)c(F)c2)cc1 (configuration not stated) [3-[(4-tert-butylphenyl)methyl]-1-[1-(3-fluoro-4-methanesulfonamidophenyl)-2-phenylethyl]thiourea],700 nM
5,CC(NC(=S)NCc1ccc(C(C)(C)C)cc1)c1ccc(NS(C)(=O)=O)c(F)c1 (configuration not stated) [3-[(4-tert-butylphenyl)methyl]-1-[1-(3-fluoro-4-methanesulfonamidophenyl)ethyl]thiourea],9.2 nM
6,CCC(NC(=S)NCc1ccc(C(C)(C)C)cc1)c1ccc(NS(C)(=O)=O)c(F)c1 (configuration not stated) [3-[(4-tert-butylphenyl)methyl]-1-[1-(3-fluoro-4-methanesulfonamidophenyl)propyl]thiourea],54 nM
7,COc1cc(C(C)NC(=S)NCc2ccc(C(C)(C)C)cc2)ccc1NS(C)(=O)=O (configuration not stated) [3-[(4-tert-butylphenyl)methyl]-1-[1-(4-methanesulfonamido-3-methoxyphenyl)ethyl]thiourea],28.6 nM
8,CC(NC(=S)NCc1ccc(C(C)(C)C)cc1)c1ccc(NS(C)(=O)=O)cc1 (configuration not stated) [3-[(4-tert-butylphenyl)methyl]-1-[1-(4-methanesulfonamidophenyl)ethyl]thiourea],14.7 nM
9,CC(C)(C)c1ccc(CNC(=S)NC(C)(C)c2ccc(NS(C)(=O)=O)c(F)c2)cc1 [3-[(4-tert-butylphenyl)methyl]-1-[2-(3-fluoro-4-methanesulfonamidophenyl)propan-2-yl]thiourea],980 nM
10,COc1cc(C(C)(C)NC(=S)NCc2ccc(C(C)(C)C)cc2)ccc1NS(C)(=O)=O [3-[(4-tert-butylphenyl)methyl]-1-[2-(4-methanesulfonamido-3-methoxyphenyl)propan-2-yl]thiourea],663 nM
11,CC(C)(C)c1ccc(CNC(=S)NC(C)(C)c2ccc(NS(C)(=O)=O)cc2)cc1 [3-[(4-tert-butylphenyl)methyl]-1-[2-(4-methanesulfonamidophenyl)propan-2-yl]thiourea],1800 nM
12,C[C@@H](NC(=S)NCc1ccc(C(C)(C)C)cc1)c1ccc(NS(C)(=O)=O)c(F)c1 [3-[(4-tert-butylphenyl)methyl]-1-[(1R)-1-(3-fluoro-4-methanesulfonamidophenyl)ethyl]thiourea],37 nM
13,C[C@@H](NC(=S)NCc1ccc(C(C)(C)C)cc1)c1ccc(NS(C)(=O)=O)cc1 [3-[(4-tert-butylphenyl)methyl]-1-[(1R)-1-(4-methanesulfonamidophenyl)ethyl]thiourea],4.5 nM
14,C[C@H](NC(=S)NCc1ccc(C(C)(C)C)cc1)c1ccc(NS(C)(=O)=O)c(F)c1 [3-[(4-tert-butylphenyl)methyl]-1-[(1S)-1-(3-fluoro-4-methanesulfonamidophenyl)ethyl]thiourea],2670 nM
15,CC(C)(C)c1ccc(CNC(=S)NC(c2ccccc2)c2ccc(NS(C)(=O)=O)c(F)c2)cc1 (configuration not stated) [3-[(4-tert-butylphenyl)methyl]-1-[(3-fluoro-4-methanesulfonamidophenyl)(phenyl)methyl]thiourea],860 nM
16,CC(C)(C)c1ccc(CNC(=S)NCc2ccc(NS(C)(=O)=O)c(F)c2)cc1 [JYL1421],9.2 nM
17,"Oc1cc2c(cc1O)CN(C(=S)NCCc1ccc(Cl)cc1)CCC2 [N-[2-(4-chlorophenyl)ethyl]-7,8-dihydroxy-2,3,4,5-tetrahydro-1H-2-benzazepine-2-carbothioamide]",520 nM
